Converted amounts (≈) assume the structure as drawn.
Test system: P388
Assay: Cytotoxicity against mouse P388 cells
Assay type: functional
Conditions: read-out: ED50 (the source's name)

Structure (SMILES): CCCCCCCC/C=C/C(=O)O[C@@H]1[C@@H](C)[C@@]2(O)[C@H]([C@@H]3C(C)(C)[C@]13OC(C)=O)[C@@H](OO)C(CO)=C[C@]1(O)C(=O)C(C)=C[C@@H]21 [OSTODIN]
- EC50: 0.055 mg/L (≈ 0.0909 µM)

Reference: ChEMBL document CHEMBL1151410, “Plant anticancer agents. XXII. Isolation of a phorbol diester and its delta 5,6-7 beta-hydroperoxide derivative from Ostodes paniculata” (1983)
